Source: patent US8252814B2, “Agents and crystals for improving excretory potency of urinary bladder” (priority 1998, dated 2012)
Marks after values point to notes of the source that are not given here.

Legend:
urinary bladder = assay: Potentiation effect for rhythmic contraction of urinary bladder in guinea pig, Experimental Example 2; format: in vivo, Hartley male guinea pigs; settings: Cavia porcellus, iv, read-out: AUC200 (mg/kg, i.v.)
Method: Potentiation effect of the compounds disclosed in Reference Examples for rhythmic contraction of urinary bladder was examined using Hartley male guinea pigs. Hartley male guinea pigs (SLC) weighing about 300 g were anesthetized with urethane (1.2 g/kg, i.p.), held, and incised at the midline of abdomen to expose the bladder. The urethra was ligated, and a polyethylene tube (PE-50) was inserted into the bladder. The internal pressure of the bladder was measured with a blood pressure amplifier (Nippon Koden), and the data was collected on a personal computer through an A/D converter (MP-30, Biopac Systems). A proper amount of physiological saline was injected into the bladder through a cannula to induce rhythmic contraction of the to bladder.
The area (AUC) that is formed by a curve of the internal pressure of the bladder and a base line was calculated through analytical software (Studentlab pro 2.1.5, Biopac Systems) to evaluate the effect of the test compounds. The curve of the internal pressure is made based on the bladder contraction immediately before administration of the test compound and the first contraction 5 minutes after the administration. From the dose-dependent curve of AUC, the dose at which AUC before drug administration was increased 2 times (AUC200) was calculated to determine potency of contraction-enhancing effect of the test compounds for the muscle of urinary bladder. In addition, the potency of contraction-enhancing effect of […] for the muscle of bladder was determined in the same manner as mentioned above.

[1] = biological target: T1, acetylcholinesterase of human erythrocyte origin (Homo sapiens, UniProt P22303); assay: Measurement of acetylcholinesterase-inhibiting action (acetylthiocholine / Ellman method), Experimental Example 1; format: biochemical; settings: at least 3 experiments
T1 construct: Acetylcholinesterase of human erythrocyte origin (Sigma Chemical Co.); purchased Sigma Chemical Co; host or cells: human erythrocytes (natural source)
T1 sequence (P22303 32-617 isoform P22303-2 limits assumed): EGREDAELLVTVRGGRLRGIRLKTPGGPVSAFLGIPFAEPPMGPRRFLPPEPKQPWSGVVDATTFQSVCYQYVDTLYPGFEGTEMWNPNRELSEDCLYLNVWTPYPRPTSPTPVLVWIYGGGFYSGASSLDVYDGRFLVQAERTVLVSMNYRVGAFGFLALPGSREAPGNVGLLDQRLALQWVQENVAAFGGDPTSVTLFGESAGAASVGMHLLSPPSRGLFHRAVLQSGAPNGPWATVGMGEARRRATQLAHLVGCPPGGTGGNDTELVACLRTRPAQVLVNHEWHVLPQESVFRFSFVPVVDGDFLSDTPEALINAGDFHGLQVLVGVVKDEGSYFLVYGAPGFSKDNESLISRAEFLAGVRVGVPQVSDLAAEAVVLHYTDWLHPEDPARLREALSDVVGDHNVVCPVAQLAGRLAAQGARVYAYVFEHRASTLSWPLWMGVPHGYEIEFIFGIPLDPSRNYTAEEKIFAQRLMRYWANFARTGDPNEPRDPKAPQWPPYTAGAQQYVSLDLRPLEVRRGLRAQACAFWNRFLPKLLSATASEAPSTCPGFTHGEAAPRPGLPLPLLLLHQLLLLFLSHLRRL
Method: Acetylcholinesterase-inhibiting action of the compounds disclosed in Reference Examples was measured using acetylcholinesterase of human erythrocyte origin according to the acetylthiocholine method (Ellman method).
Acetylcholinesterase of human erythrocyte origin (Sigma Chemical Co.) was dissolved in distilled water at a concentration of 0.2 IU/mL to give an enzyme authentic sample. To a 96-well microplate was dispensed 20 μL of drug solution, 30 μL of 80 mM Tris-HCl (pH 7.4), 50 μL of enzyme authentic sample and 50 μL of 5 mM 5,5-dithio-bis(2-nitrobenzoic acid) (Sigma Chemical Co.), and the plate was shaken for 10 seconds. Then, 50 μL of acetylthiocholine iodide (Sigma Chemical Co.) was added, and the plate was again shaken. Immediately after shaking, increase of extinction at […] was measured at intervals of 30 seconds for 10 minutes. The enzyme activity was determined according to the following equation.
The experiment was repeated at least 3 times for each compound to obtain 50% inhibitory concentration (IC50). Moreover, in the same manner as mentioned above, acetylcholinesterase-inhibiting activity of distigmine was measured.

guinea pigs [2] = assay: Effect on urination efficiency in guinea pigs, Experimental Example 3; format: in vivo, Hartley male guinea pigs; settings: for Efficiency of Urination (%) Before adm. / Efficiency of Urination (%) After adm. / Improvement of Efficiency (%): guinea pig; for Efficiency of Urination (%) Before adm.: before administration; for Efficiency of Urination (%) After adm. / Improvement of Efficiency (%): 30 minutes after administration
Description: Effect of the compounds of Reference Examples on urination efficiency was examined using Hartley male guinea pigs. Six to ten Hartley male guinea pigs weighing 346.5±3.5 g (SLC) were employed in each treated group. Guinea pigs were anesthetized with urethane, and held, and the bladder was exposed. Two polyethylene tubes (PE-50 and PE-100) were inserted into the bladder. One (PE-50) of the tubes was used in infusion of physiological saline, and the other (PE-100) was used for measurement of the internal pressure of the bladder. Saline was infused continuously at a flow rate of 0.3 mL/min. The infusion was stopped at the time when intermittent urination was confirmed at least 3 times, and the whole saline in bladder was removed. Again, infusion was started, and stopped at the time when a rise of the pressure in bladder was confirmed immediately before urination, and the time required for infusion and the weight of excreted urine were measured. Efficiency of urination was calculated from the following equation. Efficiency of urination (%)=100×Excreted volume (mL)/Infusion time (min)×0.3 (mL/min)
Measurement was made at least 2 times before administration of the test compound, and then the test compound was dissolved in distilled water and administered intravenously. […] Effect by administration of solvents was also confirmed.
The average measured value before administration of the test compounds was regarded as the value before administration, and applied to the paired-t test for a significant difference test with the value after the administration. (** p<0.01, * p<0.05)

guinea pigs [3] = assay: Effect on the flow rate of urine in guinea pigs, single or combined use, Experimental Example 4; format: in vivo, Hartley male guinea pigs
Description: Effect on the flow rate of urine by single or combined use of Compounds of Reference Examples, distigmine, prazosin, and tamsulosin was examined using Hartley male guinea pigs. Four to six Hartley male guinea pigs weighing about 350 g (SLC) were employed in each treated group. Guinea pigs were anesthetized with urethane, and held, and the bladder was exposed. Two polyethylene tubes (PE-100) were inserted into the bladder. One of the tubes was used in infusion of physiological saline, and the other used for measurement of the internal pressure of the bladder. Saline was infused continuously at a flow rate of 0.3 mL/min. The infusion was stopped at the time when intermittent urination was confirmed at least 3 times, and the whole saline in bladder was removed. Again, infusion was started, and stopped at the time when a rise of the pressure in bladder was confirmed immediately before urination. Excreted urine was weighed on an electronic force balance (HX-400, A&D). Analogue data of the internal pressure of the bladder and urine weight were input in an AD converter (MP-30, Biopac Systems) and the digital signal was analyzed by means of purpose-made software (Student lab pro 2.1.5, Biopac Systems). Sampling interval of the date was fixed at 0.1 second, and the value of urine weight was differentiated to determine the flow rate of urine. In order to remove data noise of the excretion volume and flow rate of urine, the data was adapted to a lowcut filter at 0.5 Hz.
Measurement was made 2 times before administration of the test compound, and then the test compound was administered intravenously. Again, measurement was made 10 minutes after administration of the test compound.
The average measured value before administration of the test compounds was regarded as the value before administration, and the rate of change of the values from the ante-administration to the post-administration was calculated to compare between the groups by means of the Dunnet's test.

## CN(CCCCCCN(C)C(=O)Oc1ccc[n+](C)c1)C(=O)Oc1ccc[n+](C)c1 [Distigmine, reference compound]
Urinary bladder
  ED (2-fold bladder contraction AUC): 0.1 mg/kg
[1]
  IC50: 0.723 µM
Guinea pigs [2]; conclusion from Table 7
  improvement of urination efficiency (in words): poor and it makes the efficiency worse at a high dose
Guinea pigs [2]; 0.1 mg/kg i.v. group
  Efficiency of Urination (%) Before adm.: 79.1 ± 5.7%
Guinea pigs [2]; 0.1 mg/kg i.v.
  Efficiency of Urination (%) After adm.: 90.9 ± 2.7%
  Improvement of Efficiency (%): 20.4%
Guinea pigs [2]; 0.3 mg/kg i.v. group (distigmine)
  Efficiency of Urination (%) Before adm.: 67.4 ± 4.3%
Guinea pigs [2]; 0.3 mg/kg i.v.
  Efficiency of Urination (%) After adm.: 75.3 ± 3.7%
  Improvement of Efficiency (%): 14.7%
Guinea pigs [2]; 1 mg/kg i.v. group (distigmine)
  Efficiency of Urination (%) Before adm.: 78.6 ± 6.7%
Guinea pigs [2]; 1 mg/kg i.v.
  Efficiency of Urination (%) After adm.: 67.8 ± 4.6%
  Improvement of Efficiency (%): −11.6%
Guinea pigs [2]; 3 mg/kg i.v. group (distigmine)
  Efficiency of Urination (%) Before adm.: 68.6 ± 7.0%
Guinea pigs [2]; 3 mg/kg i.v.
  Efficiency of Urination (%) After adm.: 48.1 ± 8.5%
  Improvement of Efficiency (%): −30.9** %
Guinea pigs [3]; conclusion from Tables 8 and 9, alone and in combination with α-blockers
  improvement of the flow rate of urine (in words): poor and not enhanced even in combination with an α-blocker prazosin
Guinea pigs [3]; guinea pig, distigmine 1.0 mg/kg i.v. group, before administration (Table 8)
  Flow Rate (mL/sec) Ante-admn.: 0.25 ± 0.05 mL/s
Guinea pigs [3]; guinea pig, distigmine 1.0 mg/kg i.v., 10 minutes after administration (Table 8)
  Flow Rate (mL/sec) Post-admn.: 0.22 ± 0.05 mL/s
Guinea pigs [3]; guinea pig, distigmine 1.0 mg/kg i.v., 10 minutes after administration, control DMSO (Table 8)
  Improvement (%): −8.31 ± 11.13%
